Target: T1, His-tagged human recombinant DDR-2 kinase domain (His-TEV-DDR2 467-855 aa) (Homo sapiens, UniProt Q16832)
T1 construct: His-TEV-DDR2 467-855 aa
T1 sequence (Q16832 467-855): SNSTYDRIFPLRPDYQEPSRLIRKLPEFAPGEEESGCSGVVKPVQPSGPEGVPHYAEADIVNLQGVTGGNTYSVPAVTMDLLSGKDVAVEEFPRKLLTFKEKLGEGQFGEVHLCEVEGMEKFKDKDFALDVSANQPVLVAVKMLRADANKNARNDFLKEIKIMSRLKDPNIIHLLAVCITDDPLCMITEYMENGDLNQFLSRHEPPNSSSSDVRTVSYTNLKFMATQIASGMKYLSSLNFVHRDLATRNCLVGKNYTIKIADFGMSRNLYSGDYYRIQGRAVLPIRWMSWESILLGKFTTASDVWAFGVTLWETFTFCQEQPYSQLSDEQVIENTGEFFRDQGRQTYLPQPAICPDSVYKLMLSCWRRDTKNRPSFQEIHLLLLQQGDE
Test: Autophosphorylation assay for biochemical activity testing of DDR2 (HTRF)
Experimental: The autophosphorylation assay was run in two steps: the enzymatic reaction in which His-tagged DDR2 with ATP as co-substrate phosphorylates itself and the detection reaction where a time resolved FRET between XL665® labelled anti-6His antibody bound to the His-tag of the enzyme and cryptate labelled anti-phospho-Tyrosine-antibody (PT66) bound the phosphorylated Tyrosine residue of DDR2 was analysed. The autophosphorylation activity was detectable directly via the increase in HTRF signal.
The autophosphorylation assay was performed as 1536 well or 384 well HTRF® (Cisbio, Codolet, France) assay format in Greiner low volume medium binding 384-well microtiter plates and was used for high throughput screen. […] The ratio of the emission signals was determined. The full value used was the inhibitor-free reaction.

[1] = biochemical DDR2 autophosphorylation
[2] = 4 nM DDR2 kinase domain, 150 μM ATP, 150 min at 22° C.

| IC50 [1] | IC50 [2] | SMILES |
| --- | --- | --- |
| 490 nM | – | CCc1cccc(NC(=O)NCc2ccc(Oc3ccncc3)cc2)c1 [compound 61, 1-(3-Ethyl-phenyl)-3-[4-(pyridin-4-yloxy)-benzyl]-urea] |
| 290 nM | – | CNC(=O)c1cc(Oc2ccc(CNC(=O)Nc3cnc4ccccc4c3)cc2)ccn1 [compound 97, 4-{4-[(3-Quinolin-3-yl-ureido)-methyl]-phenoxy}-pyridine-2-carboxylic acid methylamide] |
| – | 11000 nM | CNC(=O)c1cc(Oc2ccc(CNC(=O)Nc3cccnc3Cl)cc2)ccn1 [compound 16] |
| 560 nM | – | O=C(NCc1ccc(Oc2ccncc2)cc1)Nc1cc(C(F)(F)F)cc(C(F)(F)F)c1 [compound 22] |
| 770 nM | – | COc1cc(Cl)c(C)cc1NC(=O)NCc1ccc(Oc2ccncc2)c(C)c1 [compound 248, 1-(4-Chloro-2-methoxy-5-methyl-phenyl)-3-[3-methyl-4-(pyridin-4-yloxy)-benzyl]-urea] |
| 1400 nM | – | O=C(NCc1ccc(Oc2ccncc2)cc1)Nc1ccc(Cl)cc1Cl [compound 5] |
| – | 610 nM | CNC(=O)c1cc(Oc2ccc(COC(=O)Nc3cc(C(F)(F)F)cnc3O)cc2)ccn1 [compound 5] |
| – | 260 nM | CNC(=O)c1cc(Oc2ccc(CNC(=O)Nc3cc(C(F)(F)F)cn(Cc4ccccc4)c3=O)cc2)ccn1 [compound 12] |
| 10000 nM | – | CC(=O)c1cccc(NC(=O)NCc2ccc(Oc3ccncc3)cc2)c1 [compound 7] |
| 83 nM | – | CNC(=O)c1cc(Oc2ccc(CNC(=O)Nc3cc(C)ccc3OC3CCNCC3)cc2)ccn1 [compound 159, 4-(4-{3-[5-Methyl-2-(piperidin-4-yloxy)-phenyl]-ureidomethyl}-phenoxy)-pyridine-2-carboxylic acid methylamide] |
| 440 nM | – | CNC(=O)c1cc(Oc2ccc(CNC(=O)Nc3cc(C(F)(F)F)c(Cl)cc3OCCN3C(=O)c4ccccc4C3=O)cc2)ccn1 [compound 242, 4-[4-(3-{4-Chloro-2-[2-(1,3-dioxo-1,3-dihydro-isoindol-2-yl)-ethoxy]-5-trifluoromethyl-phenyl}-ureidomethyl)-phenoxy]-pyridine-2-carboxylic acid methylamide] |
| 180 nM | – | CNC(=O)c1cc(Oc2ccc(CNC(=O)Nc3cc(C)c(Cl)cc3OCCNS(C)(=O)=O)cc2)ccn1 [compound 193, 4-(4-{3-[4-Chloro-2-(2-methanesulfonylamino-ethoxy)-5-methyl-phenyl]-ureidomethyl}-phenoxy)-pyridine-2-carboxylic acid methylamide] |
| 750 nM | – | COc1cc(Cl)c(C)cc1NC(=O)NCc1ccc(Oc2ccnc3cc(C)oc23)c(C)c1 [compound 252, 1-(4-Chloro-2-methoxy-5-methyl-phenyl)-3-[3-methyl-4-(2-methyl-furo[3,2-b]pyridin-7-yloxy)-benzyl]-urea] |
| 9500 nM | – | O=C(NCc1ccc(Oc2ccncc2)cc1)Nc1ccc(Br)cc1Cl [compound 35, 1-(4-Bromo-2-chloro-phenyl)-3-[4-(pyridin-4-yloxy)-benzyl]-urea] |
| 440 nM | – | Cc1cc(NC(=O)NCc2ccc(Oc3cc(N)ncn3)c(C)c2)c(OCCN(C)C)cc1Cl [compound 251, 1-[4-(6-Amino-pyrimidin-4-yloxy)-3-methyl-benzyl]-3-[4-chloro-2-(2-dimethylamino-ethoxy)-5-methyl-phenyl]-urea] |
| 87 nM | – | COc1ccc(Cl)cc1NC(=O)NCc1ccc(Oc2ccncc2)cc1 [compound 32] |
| – | 6600 nM | CNC(=O)c1cc(Oc2ccc(CNC(=O)Nc3ncc(C(F)(F)F)cc3Cl)cc2)ccn1 [compound 7] |
| 1200 nM | – | O=C(NCc1ccc(Oc2ccncc2)cc1)Nc1cc(Cl)cc(Cl)c1 [compound 57, 1-(3,5-Dichloro-phenyl)-3-[4-(pyridin-4-yloxy)-benzyl]-urea] |
| 150 nM | – | CNC(=O)c1cc(Oc2ccc(CNC(=O)Nc3cc(C)c(Cl)cc3OC)cc2F)ccn1 [compound 218, 4-{4-[3-(4-Chloro-2-methoxy-5-methyl-phenyl)-ureidomethyl]-2-fluoro-phenoxy}-pyridine-2-carboxylic acid methylamide] |
| 3300 nM | – | CNC(=O)c1cc(Oc2ccc(CNC(=O)Nc3cc(C(F)(F)F)c(Cl)cc3OCC(=O)O)cc2)ccn1 [compound 98, (5-Chloro-2-{3-[4-(2-methylcarbamoyl-pyridin-4-yloxy)-benzyl]-ureido}-4-trifluoromethyl-phenoxy)-acetic acid] |
| 2800 nM | – | O=C(NCc1ccc(Oc2ccncc2)cc1)Nc1ccc(C(F)(F)F)cc1Cl [compound 37, 1-(2-Chloro-4-trifluoromethyl-phenyl)-3-[4-(pyridin-4-yloxy)-benzyl]-urea] |
| 9200 nM | – | O=C(NCc1ccc(Oc2ccncc2)cc1)Nc1ccccc1 [compound 245, 1-Phenyl-3-[4-(pyridin-4-yloxy)-benzyl]-urea] |

| IC50 [1] | IC50 [2] | SMILES |
| --- | --- | --- |
| 140 nM | – | CNC(=O)c1cc(Oc2ccc(CNC(=O)Nc3cc(C(F)(F)F)ccc3OCCN3CCCC3)cc2)ccn1 [compound 106, 4-(4-{3-[2-(2-Pyrrolidin-1-yl-ethoxy)-5-trifluoromethyl-phenyl]-ureidomethyl}-phenoxy)-pyridine-2-carboxylic acid methylamide] |
| – | 780 nM | CNC(=O)c1cc(Oc2ccc(CNC(=O)Nc3ccc(C)cn3)cc2C)ccn1 [compound 13] |
| 42 nM | – | O=C(NCc1ccc(Oc2ccncc2)cc1)Nc1cc(C(F)(F)F)ccc1Cl [compound 43, 1-(2-Chloro-5-trifluoromethyl-phenyl)-3-[4-(pyridin-4-yloxy)-benzyl]-urea] |
| 4000 nM | – | COc1cccc(NC(=O)NCc2ccc(Oc3ccncc3)cc2)c1 [compound 45, 1-(3-Methoxy-phenyl)-3-[4-(pyridin-4-yloxy)-benzyl]-urea] |
| – | 51 nM | Cn1cc(C(F)(F)F)cc(NC(=O)NCc2ccc(Oc3ccnc4ccccc34)cc2)c1=O [compound 9] |
| 20000 nM | – | O=C(NCc1ccc(Oc2ccncc2)cc1)Nc1ccccc1C(F)(F)F [compound 26] |
| 24 nM | – | CNC(=O)c1cc(Oc2ccc(CNC(=O)Nc3cc(C(F)(F)F)c(Cl)cc3OCC(=O)OC(C)C)cc2)ccn1 [compound 114, (5-Chloro-2-{3-[4-(2-methylcarbamoyl-pyridin-4-yloxy)-benzyl]-ureido}-4-trifluoromethyl-phenoxy)-acetic acid isopropyl ester] |
| 1200 nM | – | Cc1cc(NC(=O)NCc2ccc(Oc3ccncn3)c(C)c2)c(OCCN(C)C)cc1Cl [compound 250, 1-[4-Chloro-2-(2-dimethylamino-ethoxy)-5-methyl-phenyl]-3-[3-methyl-4-(pyrimidin-4-yloxy)-benzyl]-urea] |
| 1200 nM | – | CNC(=O)c1cc(Oc2ccc(CNC(=O)Nc3ccccc3OCCCN(C)C)cc2)ccn1 [compound 86, 4-(4-{3-[2-(3-Dimethylamino-propoxy)-phenyl]-ureidomethyl}-phenoxy)-pyridine-2-carboxylic acid methylamide] |
| ≥ 100000 nM | – | O=C(NCc1ccc(Oc2ccncc2)cc1)Nc1cccc(Cl)c1Cl [compound 13] |
| 3800 nM | – | O=C(NCc1ccc(Oc2ccncc2)cc1)Nc1ccc(Br)cc1 [compound 9] |
| – | 1500 nM | CNC(=O)c1cc(Oc2ccc(CNC(=O)Nc3cc(Cl)nc(Cl)c3)cc2)ccn1 [compound 2] |
| – | 91 nM | CCn1cc(C(F)(F)F)cc(NC(=O)NCc2ccc(Oc3ccnc(C(=O)NC)c3)cc2)c1=O [compound 11] |
| – | 710 nM | CNC(=O)c1cc(Oc2ccc(CNC(=O)Nc3cc(C)cnc3Cl)cc2)ccn1 [compound 22] |
| 150 nM | – | CNC(=O)c1cc(Oc2ccc(C(C)NC(=O)Nc3cc(C(F)(F)F)ccc3OC)cc2)ccn1 (centres unmarked) [compound 69, 4-(4-{1-[3-(2-Methoxy-5-trifluoromethyl-phenyl)-ureido]-ethyl}-phenoxy)-pyridine-2-carboxylic acid methylamide] |
| – | 190 nM | CNC(=O)c1cc(Oc2ccc(CNC(=O)Nc3cc4ccccc4nc3OC)cc2)ccn1 [compound 11] |
| 41 nM | – | CNCCOc1cc(Cl)c(C(F)(F)F)cc1NC(=O)NCc1ccc(Oc2ccnc(C(=O)NC)c2)c(C)c1 [compound 147, 4-(4-{3-[4-Chloro-2-(2-methylamino-ethoxy)-5-trifluoromethyl-phenyl]-ureidomethyl}-2-methyl-phenoxy)-pyridine-2-carboxylic acid methylamide] |
| 3400 nM | – | O=C(NCc1ccc(Oc2ccncc2)cc1)Nc1ccc(F)cc1 [compound 11] |
| – | 1600 nM | CNC(=O)c1cc(Oc2ccc(CNC(=O)Nc3cccnc3OC)cc2)ccn1 [compound 4] |
| 1800 nM | – | Cc1cc(C)cc(NC(=O)NCc2ccc(Oc3ccncc3)cc2)c1 [compound 44, 1-(3,5-Dimethyl-phenyl)-3-[4-(pyridin-4-yloxy)-benzyl]-urea] |
| 1600 nM | – | CNC(=O)c1cc(Oc2ccc(CNC(=O)Nc3cc(C(F)(F)F)ccc3OCC(=O)O)cc2)ccn1 [compound 94, (2-{3-[4-(2-Methylcarbamoyl-pyridin-4-yloxy)-benzyl]-ureido}-4-trifluoromethyl-phenoxy)-acetic acid] |
| 16000 nM | – | CC(C)(C)c1ccc(NC(=O)NCc2ccc(Oc3ccncc3)cc2)cc1 [compound 56, 1-(4-tert-Butyl-phenyl)-3-[4-(pyridin-4-yloxy)-benzyl]-urea] |

From US20150225369A1, “DDR2 INHIBITORS FOR THE TREATMENT OF OSTEOARTHRITIS” (Merck Patent GmbH, priority 2012, published 2015)
